This passage reports EC50 results from patent publication US12037333B2, “Pyridopyrazine and pyridotriazine inhibitors of influenza virus replication” (priority 2018, dated 2024).

Broadly, the EC50 is the concentration that produces a half-maximal response. A higher EC50 goes with lower potency in that assay.

Some results are limits rather than exact numbers.

One test has as its system Influenza type B (cell culture adapted strain B/Lee/40, ATCC VR-1535). Put plainly: Influenza antiviral assay: inhibition of virus-induced cytopathic effects (CPE) in MDCK cells, XTT dye reduction. The class given is cell-based. Particulars: Influenza B virus, MDCK, 96 h, strain B/Lee/40, MDCK cells, CPE inhibition at 4 days. (Cytopathic effects are the visible damage that an infection or toxin causes in cultured cells.)
On to `CN1C(=O)c2c(O)c(=O)ccn2N(C23C(=Cc4c(F)cccc42)Cc2c(F)cccc23)C1CN` (stereo not drawn) [Compound A106, 2-(aminomethyl)-1-(1,8-difluoroindeno[1,2-a]inden-4b(9H)-yl)-5-hydroxy-3-methyl-2,3-dihydro-1H-pyrido[2,1-f][1,2,4]triazine-4,6-dione], for which the EC50 is < 125 nM.
For `CN1C(=O)c2c(O)c(=O)ccn2N(C23c4cccc(F)c4CC2Cc2c(F)cccc23)C1CN` (stereo not drawn) [Compound A107, 2-(aminomethyl)-1-(1,8-difluoro-9a,10-dihydroindeno[1,2-a]inden-4b(9H)-yl)-5-hydroxy-3-methyl-2,3-dihydro-1H-pyrido[2,1-f][1,2,4]triazine-4,6-dione], the EC50 was in the range of 125 to 250 nM.
Still for that read-out and setting: then `O=C1c2c(O)c(=O)ccn2N(C23c4ccccc4CC2Cc2c(Cl)cccc23)CN1CC1CC1` (stereo not drawn) [Compound A108], with 250 to 375 nM.
Still for that read-out and setting: then `COCCN1CN(C23c4ccccc4CC2Cc2ccccc23)n2ccc(=O)c(O)c2C1=O` (stereo not drawn) [Compound A110], with < 125 nM.
With `O=C1c2c(O)c(=O)ccn2N(C23c4ccccc4CC2Cc2c(Cl)cccc23)CN1CCF` (stereo not drawn) [Compound A111], the EC50 fell in the range of 125 to 250 nM.
Still for that read-out and setting: then `O=C1c2c(O)c(=O)ccn2N(C23c4ccccc4CC2Cc2c(Cl)cccc23)CN1CC1CCC1` (stereo not drawn) [Compound A112], with 250 to 375 nM; and `COCCN1C(=O)c2c(O)c(=O)ccn2N(C23c4ccccc4CC2Cc2c3ccc(F)c2F)C1C` (stereo not drawn) [Compound A113], with 125 to 250 nM; and `CC1N(CCF)C(=O)c2c(O)c(=O)ccn2N1C12c3ccccc3CC1Cc1c(Cl)cccc12` (stereo not drawn) [Compound A115], with 250 to 375 nM.
Regarding `CCN1CN(C23c4ccccc4CC2(C)Cc2cc(F)ccc23)n2ccc(=O)c(O)c2C1=O` (stereo not drawn) [Compound A116], the EC50 is < 125 nM.
Turning to `CC(C)CN1C(=O)c2c(O)c(=O)ccn2N(C23c4ccccc4CC2Cc2c(F)cccc23)C1C` (stereo not drawn) [Compound A117], the EC50 was 250 to 375 nM.
The same measure, in the same setting: then `CC(C)CN1C(=O)c2c(O)c(=O)ccn2N(C23c4ccccc4CC2Cc2c(Cl)cccc23)C1C` (stereo not drawn) [Compound A118], with 250 to 375 nM; and `CC1N(CCF)C(=O)c2c(O)c(=O)ccn2N1C12c3ccccc3CC1Cc1c(F)cccc12` (stereo not drawn) [Compound A121], with 125 to 250 nM; and `COCCN1C(=O)c2c(O)c(=O)ccn2N(C23c4ccccc4CC2Cc2c(F)cccc23)C1C` (stereo not drawn) [Compound A124], with 375 to 500 nM.
Still for that read-out and setting: next, `COCCN1C(=O)c2c(O)c(=O)ccn2N(C23c4ccccc4CC2Cc2c(Cl)cccc23)C1C` (stereo not drawn) [Compound A125]: 125 to 250 nM.
Take `CN1CN(C23c4ccccc4CC2(C)Cc2cc(F)ccc23)n2ccc(=O)c(O)c2C1=O` (stereo not drawn) [Compound A126]: the EC50 was < 125 nM.
Same read-out and setting: next, `CC(C)CN1C(=O)c2c(O)c(=O)ccn2N(C23c4ccccc4CC2Cc2c3ccc(F)c2F)C1C` (stereo not drawn) [Compound A127]: 250 to 375 nM.
`CC1N(CC2CC2)C(=O)c2c(O)c(=O)ccn2N1C12c3ccccc3CC1Cc1c2ccc(F)c1F` (stereo not drawn) [Compound A128] yielded an EC50 of 125 to 250 nM.
On the same count and under the same terms, then `CC1N(CC2CC2)C(=O)c2c(O)c(=O)ccn2N1C12c3ccccc3CC1Cc1c(F)cccc12` (stereo not drawn) [Compound A129], with 125 to 250 nM; and `O=C1c2c(O)c(=O)ccn2N(C23c4cccc(F)c4CC2Cc2c(F)cccc23)CN1CC1CCCCO1` (stereo not drawn) [Compound A130], with 125 to 250 nM.
On the same count and under the same terms, then `O=C1c2c(O)c(=O)ccn2N(C23c4ccccc4CC2Cc2c3ccc(F)c2F)CN1CC1CCCCO1` (stereo not drawn) [Compound A131], with 125 to 250 nM; and `CCCN1C(=O)c2c(O)c(=O)ccn2N(C23c4ccccc4CC2Cc2c(Cl)cccc23)C1C` (stereo not drawn) [Compound A132], with 250 to 375 nM; and `O=C1c2c(O)c(=O)ccn2N(C23c4ccccc4CC2Cc2c(F)cccc23)CN1CC1CCCCO1` (stereo not drawn) [Compound A133], with 125 to 250 nM.
Compound `CC1N(CC(F)F)C(=O)c2c(O)c(=O)ccn2N1C12c3ccccc3CC1Cc1c2ccc(F)c1F` (stereo not drawn) [Compound A136] showed an EC50 of 250 to 375 nM.
The same measure, in the same setting: then `CCN1C(=O)c2c(O)c(=O)ccn2N(C23c4ccccc4CC2Cc2c(F)cccc23)C1C` (stereo not drawn) [Compound A138], with < 125 nM; and `CC1N(CC(F)F)C(=O)c2c(O)c(=O)ccn2N1C12c3ccccc3CC1Cc1c(F)cccc12` (stereo not drawn) [Compound A139], with 125 to 250 nM; and `CC1N(CC2CC2)C(=O)c2c(O)c(=O)ccn2N1C12c3ccccc3CC1Cc1c(Cl)cccc12` (stereo not drawn) [Compound A140], with 250 to 375 nM.
On the same count and under the same terms, next, `CC1N(C2CCC2)C(=O)c2c(O)c(=O)ccn2N1C12c3ccccc3CC1Cc1c(F)cccc12` (stereo not drawn) [Compound A141]: 250 to 375 nM; `Cc1cc(CN2CN(C34c5ccccc5CC3Cc3ccccc34)n3ccc(=O)c(O)c3C2=O)no1` (stereo not drawn) [Compound A144]: < 125 nM; `CN1CN(C23c4ccccc4CC2Cc2cccc(F)c23)n2ccc(=O)c(O)c2C1=O` (stereo not drawn) [Compound A145]: < 125 nM.
On the same count and under the same terms, next, `CN1CN(C23c4ccccc4CC2Cc2c3ccc(Cl)c2Cl)n2ccc(=O)c(O)c2C1=O` (stereo not drawn) [Compound A146]: 125 to 250 nM; `CCN1CN(C23c4ccccc4CC2(C)Cc2ccccc23)n2ccc(=O)c(O)c2C1=O` (stereo not drawn) [Compound A147]: 125 to 250 nM.
For the compound `CCCN1CN(C23c4ccccc4CC2Cc2c3ccc(F)c2F)n2ccc(=O)c(O)c2C1=O` (stereo not drawn) [Compound A148], the EC50 lay in the range of 125 to 250 nM.
Still for that read-out and setting: then `CC(C)CN1CN(C23c4ccccc4CC2Cc2c3ccc(F)c2F)n2ccc(=O)c(O)c2C1=O` (stereo not drawn) [Compound A149], with < 125 nM; and `CN1CN(C23c4ccccc4CC2(C)Cc2ccccc23)n2ccc(=O)c(O)c2C1=O` (stereo not drawn) [Compound A150], with < 125 nM.
For the compound `CCN1CN(C23c4cccc(F)c4CC2Cc2c(Cl)cccc23)n2ccc(=O)c(O)c2C1=O` (stereo not drawn) [Compound A151], the EC50 lay in the range of 125 to 250 nM.
Still for that read-out and setting: then `CCN1CN(C23c4ccccc4CC2(OC)Cc2ccccc23)n2ccc(=O)c(O)c2C1=O` (stereo not drawn) [Compound A152], with 125 to 250 nM; and `CCCN1CN(C23c4cccc(F)c4CC2Cc2c(F)cccc23)n2ccc(=O)c(O)c2C1=O` (stereo not drawn) [Compound A153], with 125 to 250 nM; and `CC(C)CN1CN(C23c4cccc(F)c4CC2Cc2c(F)cccc23)n2ccc(=O)c(O)c2C1=O` (stereo not drawn) [Compound A156], with 125 to 250 nM.
On the same count and under the same terms, next, `CCN1CN(C23c4ccccc4CC2(CC)Cc2ccccc23)n2ccc(=O)c(O)c2C1=O` (stereo not drawn) [Compound A157]: 125 to 250 nM; `CC1N(C)C(=O)c2c(O)c(=O)ccn2N1C12c3ccccc3CC1Cc1ccccc12` (stereo not drawn) [Compound A158]: 125 to 250 nM; `CN1CN(C23c4ccccc4CC2Cc2c3ccc(Cl)c2F)n2ccc(=O)c(O)c2C1=O` (stereo not drawn) [Compound A160]: < 125 nM.
Still for that read-out and setting: then `CCN1CN(C23c4ccccc4CC2Cc2c3ccc(Cl)c2Cl)n2ccc(=O)c(O)c2C1=O` (stereo not drawn) [Compound A161], with < 125 nM.
Take `CCC12Cc3ccccc3C1(N1CN(C)C(=O)c3c(O)c(=O)ccn31)c1ccccc1C2` (stereo not drawn) [Compound A162]: the half-maximal effective concentration (EC50) is < 125 nM.
Still for that read-out and setting: then `CCN1CN(C23c4ccccc4CC2(C)Cc2c3ccc(F)c2F)n2ccc(=O)c(O)c2C1=O` (stereo not drawn) [Compound A164], with < 125 nM.
Same read-out and setting: next, `CN1CN(C23c4ccccc4CC2(C)Cc2c3ccc(F)c2F)n2ccc(=O)c(O)c2C1=O` (stereo not drawn) [Compound A165]: < 125 nM; `CCC1N(C)C(=O)c2c(O)c(=O)ccn2N1C12c3ccccc3CC1Cc1ccccc12` (stereo not drawn) [Compound A166]: < 125 nM; `CC(C)N1CN(C23c4ccccc4CC2(C)Cc2c3ccc(F)c2F)n2ccc(=O)c(O)c2C1=O` (stereo not drawn) [Compound A167]: < 125 nM.

Staying with this test, now noted: strain B/Lee/40, MDCK cells, CPE inhibition at 4 days.
In turn, `O=C1c2c(O)c(=O)ccn2N(C23c4ccccc4CC2Cc2c(Cl)cccc23)CN1CCF` (stereo not drawn) [Compound A114] came in with an EC50 of 125 to 250 nM.
